Laboratory results from US20240190875A1, “SPIROINDOLINE DERIVATIVE, AND PREPARATION METHOD AND MEDICAL USE THEREOF” (CHANGCHUN GENESCIENCE PHARMACEUTICAL CO., LTD., priority 2021, published 2024).
Where two headings read alike, the source gives them in different places.

Legend:
[1] = in vitro; details: human; for Papp B→A at 2 h, 2 μM: Caco-2, pH 7.4, Mean Papp B to A
[2] = Caco-2 cell transport assay (bidirectional); details: human, Caco-2, 2.00 μM; for efflux ratio at 2 h, 2 μM: Caco-2, pH 7.4, Efflux Ratio; for Papp A→B at 2 h, 2 μM: Caco-2, pH 7.4, Mean Papp A to B; for Papp A→B at 2 h, 2 μM / Papp B→A at 2 h, 2 μM: pH 7.40; for Papp B→A at 2 h, 2 μM: Caco-2, pH 7.4, Mean Papp B to A
[3] = biological target: human GHSR (Homo sapiens (Human), UniProt Q92847); test: Human GHSR agonist activity, FLIPR calcium fluorescence in human GHSR/CHO stable cell line; format: cell-based
human GHSR, sequence (Q92847 whole entry): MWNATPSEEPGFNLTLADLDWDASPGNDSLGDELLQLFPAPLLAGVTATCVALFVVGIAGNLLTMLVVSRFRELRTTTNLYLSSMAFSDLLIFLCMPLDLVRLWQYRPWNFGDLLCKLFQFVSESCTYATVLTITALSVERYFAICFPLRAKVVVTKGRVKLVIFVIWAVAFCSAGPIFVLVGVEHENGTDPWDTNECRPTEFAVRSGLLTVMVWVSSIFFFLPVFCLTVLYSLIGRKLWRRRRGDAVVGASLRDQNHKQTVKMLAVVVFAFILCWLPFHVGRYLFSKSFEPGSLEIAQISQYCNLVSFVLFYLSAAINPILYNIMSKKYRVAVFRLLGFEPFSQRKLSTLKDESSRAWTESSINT
Experimental: This method was used to determine the agonism effect of the compound of the invention on the activity of human GHSR protein expressed in human GHSR/CHO stable cell line.
Preparation of buffer: HBSS (1X):HEPES (1M)=49:1, containing 0.5% BSA.
Cells of human GHSR/CHO stable cell line were inoculated into a 384-well plate, and incubated overnight. Then, the cell plate was removed, and the medium was discarded. 20 uL buffer as slowly added to each well, and then 20 uL 2X Fluo-4 Direct™ No-wash Loading Buffer was added to each well. The cell plate was incubated in an incubator at 37° C. and 5% CO2 for 50 min, and then removed and allowed to stand at room temperature for 10 min. 30 uL buffer was added to each well in the compound plate; and a buffer plate was additionally prepared and 30 uL buffer was added to each well. Test for agonism of compound: An FLIPR instrument and running software were used. 10 uL buffer was transferred to the cell plate and the value of fluorescence signal was read. 10 uL compound was transferred to the cell plate and the value of fluorescence signal was read. An FLIPR program was used to calculate the difference between the maximum value and the minimum value from the 91st signal point to the 230th signal point. The EC50 value of the compound can be calculated by software from fluorescence values corresponding to various concentrations.

[4] = test system: growth hormone (GH); test: In-vivo pharmacodynamic test in rats: plasma GH level by ELISA after oral administration; set-up: species or system Sprague-Dawley (SD) rats; details: for GH concentration in rats: male SD rats, oral, 4 mpk in 10% HS15
[5] = Subacute toxicity test in rats (14 days oral, 14 days recovery); format: in vivo, Sprague-Dawley (SD) rats
Experimental: Male Sprague-Dawley (SD) rats (180-220 g) were purchased from Liaoning Changsheng Biotechnology Co., Ltd. (Liaoning, China). All animals were kept in a temperature-controlled room (22±2° C.) with a relative humidity of 55±15% and a 12/12-h light/dark period (the light was turned off at 8:00 pm), with 3 animals in each cage. Animals were adapted to the environment for 1 week after arrival, and allowed to free access to indicated feed and sterilized water, and the padding in the animal cage was changed twice a week.
The compound of the present invention was prepared in 10% HS15.
Multiple doses (30 mpk, 100 mpk and 300 mpk) of the compound of the present invention were orally administered to rats. The compound was administered once a day for consecutive 14 days. The rats were weighed twice a week. […] Compound 5 was given by oral gavage for consecutive 14 days and then recovered for 2 weeks.

[6] = test system: Caco-2 cells; test: Caco-2 cell transport assay (bidirectional); details: Table 3-1, Caco-2, 2.00 μM
[7] = Metabolism (pharmacokinetic) test in rats, oral gavage
[8] = test system: Caco-2 cells; details: human, Caco-2, 2 h, 2 μM, pH 7.4
[9] = time point 0 min (basic sampling before dosing)
[10] = oral gavage 30, 100, 300 mpk once a day for 14 days, 2 weeks recovery
[11] = rats, single oral gavage, 1 mg/mL, 3 mL/kg, active ingredient ibutamoren measured in whole blood

Compound `CC(=O)/C=C(/C)NC(C)(C)C(=O)N[C@H](COCc1ccccc1)C(=O)N1CCC2(CC1)CN(S(C)(=O)=O)c1ccccc12` [Compound 19, (R,Z)-N-(3-(benzoxy)-1-(1-(methylsulfonyl)spiro[indol-3,4′-piperidin]-1′-yl)-1-oxopropan-2-yl)-2-methyl-2-((4-oxopen-2-en-2-yl)amino)propionamide] has an efflux ratio at 2 h, 2 μM ([1]; Caco-2, pH 7.4, Efflux Ratio) of 189, a Papp A→B at 2 h, 2 μM ([1]; Caco-2, pH 7.4, Mean Papp A to B) of 0.198 ×10⁻⁶ cm/s and a Papp B→A at 2 h, 2 μM [1] of 37.3 ×10⁻⁶ cm/s.

With `C[C@H]1O[C@@H](O[C@H]2[C@@H](O)C[C@H](O[C@H]3[C@@H](O)C[C@H](O[C@H]4CC[C@@]5(C)[C@H](CC[C@@H]6[C@@H]5C[C@@H](O)[C@]5(C)[C@@H](C7=CC(=O)OC7)CC[C@]65O)C4)O[C@@H]3C)O[C@@H]2C)C[C@H](O)[C@@H]1O` [Digoxin] the efflux ratio at 2 h, 2 μM ([2]; Table 3-1) was 523, the efflux ratio at 2 h, 2 μM ([2]; Table 3-2) was 300 and the Papp A→B at 2 h, 2 μM ([2]; Table 3-1) was 0.0229 ×10⁻⁶ cm/s. For the same compound, the Papp A→B at 2 h, 2 μM ([2]; Table 3-2) was 0.0476 ×10⁻⁶ cm/s, the Papp B→A at 2 h, 2 μM ([2]; Table 3-1) was 12 ×10⁻⁶ cm/s and the Papp B→A at 2 h, 2 μM ([2]; Table 3-2) was 14.3 ×10⁻⁶ cm/s.

In the case of `CCOP(=O)(OCC)OCOC(=O)NC(C)(C)C(=O)N[C@H](COCc1ccccc1)C(=O)N1CCC2(CC1)CN(S(C)(=O)=O)c1ccccc12` [Compound 10, ((Diethoxyphosphoryl)oxy)methyl (R)-(1-((3-(benzoxy)-1-(1-(methylsulfonyl)spiro[indol-3,4′-piperidin]-1′-yl)-1-oxopropan-2-yl)amino)-2-methyl-1-oxopropan-2-yl)carbamate], the EC50 [3] is reported as 152 nM.

With `CC(=O)OC(C)OC(=O)NC(C)(C)C(=O)N[C@H](COCc1ccccc1)C(=O)N1CCC2(CC1)CN(S(C)(=O)=O)c1ccccc12` (stereo partly drawn) [Compound 14, (4R)-7,7-dimethyl-4-(1-(methylsulfonyl)spiro[indol-3,4′-piperidin]-1′-carbonyl)-6,9-dioxo-1-phenyl-2,10-dioxa-5,8-diazadodecan-11-yl Acetate] the EC50 [3] was 47.2 nM, the “Effect on GH level compared with ibutamoren (in words)” value ([4]; rat, in vivo) was “significantly better than that of ibutamoren” and the “GH level in the circulation of rats (in words)” value ([4]; rat, in vivo) was “significantly increased”.

Compound `CCC(C)C(=O)OC(C)OC(=O)NC(C)(C)C(=O)N[C@H](COCc1ccccc1)C(=O)N1CCC2(CC1)CN(S(C)(=O)=O)c1ccccc12` (stereo partly drawn) [Compound 12, (4R)-7,7-dimethyl-4-(1-(methylsulfonyl)spiro[indol-3,4′-piperidin]-1′-carbonyl)-6,9-dioxo-1-phenyl-2,10-dioxa-5,8-diazadodecan-11-yl 2-methylbutyrate] has an EC50 [3] of 35.9 nM.

`CC(OC(=O)NC(C)(C)C(=O)N[C@H](COCc1ccccc1)C(=O)N1CCC2(CC1)CN(S(C)(=O)=O)c1ccccc12)OC(=O)C(C)(C)C` (stereo partly drawn) [Compound 20, (4R)-7,7-dimethyl-4-(1-(methylsulfonyl)spiro[indolin-3,4′-piperidin]-1′-carbonyl)-6,9-dioxo-1-phenyl-2,10-dioxa-5,8-diazadodecan-11-yl Pivalate] showed an EC50 [3] of 37.7 nM.

For `CC(OC(=O)NC(C)(C)C(=O)N[C@H](COCc1ccccc1)C(=O)N1CCC2(CC1)CN(S(C)(=O)=O)c1ccccc12)OC(=O)C(C)C` (stereo partly drawn) [Compound 5, (4R)-7,7-dimethyl-4-(1-(methylsulfonyl)spiro[indol-3,4′-piperidin]-1′-carbonyl)-6,9-dioxo-1-phenyl-2,10-dioxa-5,8-diazadodecan-11-yl Isobutyrate], the EC50 ([3]; human GHSR/CHO stable cell line, Fluo-4 FLIPR) was 14.6 nM, the “GH level in the circulation of rats (in words)” value ([4]; 15 minutes after administration, male rats) was “significantly increased” and the “GH concentration in rats” value [4, 9] was 12.23 ± 10.44 ng/mL. For the same compound, the “GH concentration in rats” value ([4]; time point 15 min) was 51.12 ± 33.98 ng/mL, the “GH concentration in rats” value ([4]; time point 30 min) was 19.07 ± 7.17 ng/mL and the “GH concentration in rats” value ([4]; time point 60 min) was 11.76 ± 4.14 ng/mL. For the same compound, the “Subacute toxicity overall finding” value ([5]; dosage 80 times) was “no obvious abnormality”, the Anatomic findings [5, 10] was “no anatomic abnormality” and the “Food intake and daily behavior” value [5, 10] was “no significant abnormality”. For the same compound, the Weight change ([5]; oral gavage 30, 100, 300 mpk once a day for 14 days, 2 weeks recovery (FIG. 1)) was “no significant difference”, the “Efflux Ratio” value [6] was 170 and the “Mean Papp A to B” value ([6]; 2 hrs, pH 7.40) was 0.0518 10^−6 cm/s. For the same compound, the “Mean Papp B to A” value ([6]; 2 hrs, pH 7.40) was 8.80 10^−6 cm/s, the “Cmax and AUC compared with positive control ibutamoren (in words)” value ([7]; rats, oral gavage) was “obviously superior” and the AUCINF-obs [7, 11] was 23.31 ± 10.81 ng·h/mL. The AUClast [7, 11] was 21.61 ± 9.52 ng·h/mL, the Cmax [7, 11] was 18.50 ± 13.60 ng/mL and the T1/2 [7, 11] was 2.43 ± 0.13 h. For the same compound, the Tmax [7, 11] was 0.44 ± 0.49 h.

With `CC(C)(N)C(=O)N[C@H](COCc1ccccc1)C(=O)N1CCC2(CC1)CN(S(C)(=O)=O)c1ccccc12` [Ibutamoren, reference compound] the “GH concentration in rats” value [4, 9] was 12.22 ± 9.90 ng/mL, the “Mean Papp B to A” value [8] was 24.1 10^−6 cm/s and the Papp B→A at 2 h, 2 μM [1] was 19.5 ×10⁻⁶ cm/s. It also gave an AUC(0-inf) ([7]; rat, whole blood, po, 3 mg/kg) of 14.3 ± 11 ng·h/mL, an AUC(0-t) ([7]; rat, whole blood, po, 3 mg/kg) of 6.97 ± 3.27 ng·h/mL and a Cmax ([7]; rat, whole blood, po, 3 mg/kg) of 3.49 ± 2.81 ng/mL. The Tmax ([7]; rat, whole blood, po, 3 mg/kg) was 1.06 ± 1.68 h and the half-life ([7]; rat, whole blood, po, 3 mg/kg) was 9.61 ± 12.1 h.
